Data taken from US5703129A, “5-amino-6-cyclohexyl-4-hydroxy-hexanamide derivatives as inhibitors of β-amyloid protein production” (Bristol-Myers Squibb Company, priority 1996, dated 1997).
Counter-ions that a name gives are not always drawn.

Target: T1, γ-Secretase (Homo sapiens, UniProt P49768)
T1 construct: transfected H4 (human neuroglioma) cells stably expressing constructs containing wild-type and mutant forms of β-APP; endogenous in cells; host or cells: H4 human neuroglioma cells, stably transfected with beta-APP (the substrate, not the enzyme)
Test: Inhibition of γ-secretase: ELISA of β-AP made by transfected H4 cells in culture
Format: cell-based
Conditions: H4 (human neuroglioma) cells expressing β-APP (Swedish variant typically), approximately 16 hours incubation, β-AP in conditioned medium by ELISA
From the text: Production and detection of β-AP made by cells in culture. The use of transfected H4 (human neuroglioma) cells stably expressing constructs containing wild-type and mutant forms of β-APP have been used to identify inhibitors of β-AP production. The Swedish variant of β-APP produces 5-7 fold more β-AP than the wild type and is typically used due to its enhanced signal. […] The capture antibody is typically a mouse monoclonal (IgG1/kβ-APPa). The antibody recognizes the carboxyl terminal epitope of β-AP. The specificity of the capture antibody ensures measurement of β-AP without interference by other secreted β-APP fragments that share amino acid sequence (β-AP1-16) with β-AP. The detecting antibody is typically an affinity purified rabbit polyclonal antibody, specific for the amino terminus of β-AP. In the cell-based assay conditioned medium from H4 cells is tested by ELISA for the quantity of β-AP present. The cell-based assay can be used to identify compounds that inhibit β-AP production. The assay should detect agents that inhibit cleavage at the β-secretase and/or the γ-secretase cleavage site as well as detecting any agent that interferes with the production and/or release of β-AP.
A typical ELISA-based assay requires plating of the transfected cells at a density sufficient for the rapid detection of the secreted β-AP (experimentally predetermined for a particular stable cell population) in a 96-well format. Cells are plated for at least six hours prior to the introduction of the test compound at which time the growth medium is replaced by fresh medium containing the agent to be tested. Test agents may typically consist of synthetic compounds, secondary metabolites from bacterial or fungal fermentation extracts, or extracts from plant or marine samples. All synthetic agents are initially screened at doses ranging from 10-100 μM or in the case of extracts at sufficient dilution to minimize cytotoxicity. Incubation of the cells with the test agent will continue for approximately 16 hours at which time equal aliquots of media from each sample well is removed and placed into a previously prepared ELISA plate for β-AP quantitation. The ELISA is carried out in a manner described by others (Haass, et al., 1992; Hawlow and Lane, 1988) and the β-AP signal quantitated. Results are obtained by analysis of the ELISA plate following development and comparison to the mock treated cell populations and samples in which known amounts of β-AP were added to construct a standard concentration curve. […] If a compound is found to be active, then a dose response experiment is performed to determine the lowest dose of compound necessary to elicit the inhibition of the production of β-AP.

Row | Compound | Activity Rating (Inhibition of γ-Secretase)
1 | CCCCNC(=O)[C@H](C)C[C@H](O)[C@H](CC1CCCCC1)NCCCC(C)C (relative stereo) [Example 19, [αS-(αR*,γR*,δR*)]N-Butyl-γ-hydroxy-α-methyl-δ-[(4-methylpentyl)amino]cyclohexanehexanamide hydrochloride] | +++ (+++ < = 10)
2 | CCCCNC(=O)[C@@H](C[C@H](O)[C@H](CC1CCCCC1)NCCCC(C)C)C(C)C (relative stereo) [Example 20, [αS-(αR*,γR*,δR*)]N-Butyl-γ-hydroxy-α-(1-methylethyl)-δ-[(4-methylpentyl)amino]cyclohexanehexanamide hydrochloride] | +++ (+++ < = 10)
3 | C=C(C)C[C@H](C[C@H](O)[C@H](CC1CCCCC1)NCCCC(C)C)C(=O)NCCCC (relative stereo) [Example 21, [αS-(αR*,γR*,δR*)]N-Butyl-γ-hydroxy-α-(2-methyl-2-propenyl)-δ-[(4-methylpentyl)amino]cyclohexanehexanamide hydrochloride] | +++ (+++ < = 10)
4 | CCCCNC(=O)[C@H](CC(C)C)C[C@H](O)[C@H](CC1CCCCC1)NCCCC(C)C (relative stereo) [Example 22, [αS-(αR*,γR*,δR*)]N-Butyl-γ-hydroxy-δ-[(4-methylpentyl)amino]-α-(2-methylpropyl)cyclohexanehexanamide hydrochloride] | +++ (+++ < = 10)
5 | C=CC[C@H](C[C@H](O)[C@H](CC1CCCCC1)NCCCC(C)C)C(=O)NCCCC (relative stereo) [Example 23, [αS-(αR*,γR*,δR*)]N-Butyl-γ-hydroxy-δ-[(4-methylpentyl)amino]-α-(2-propenyl)cyclohexanehexanamide hydrochloride] | +++ (+++ < = 10)
6 | CCCCNC(=O)[C@H](Cc1ccccc1)C[C@H](O)[C@H](CC1CCCCC1)NCCCC(C)C (relative stereo) [Example 25, [αS-(αR*,γR*,δR*)]N-Butyl-γ-hydroxy-δ-[(4-methylpentyl)amino]-α-(phenylmethyl)cyclohexanehexanamide hydrochloride] | +++ (+++ < = 10)
7 | CCCCNC(=O)[C@H](CC1CCCCC1)C[C@H](O)[C@H](CC1CCCCC1)NCCCC(C)C (relative stereo) [Example 26, [αS-(αR*,γR*,δR*)]-N-Butyl-α-(cyclohexylmethyl)-γ-hydroxy-δ-[(4-methylpentyl)amino]cyclohexanehexanamide, hydrochloride] | +++ (+++ < = 10)
8 | CC(C)CCCN[C@@H](CC1CCCCC1)[C@@H](O)C[C@H](C(=O)N[C@H](C)c1ccccc1)C(C)C (relative stereo) [Example 28, [αS-(αR*,γR*,δR*,N-(1S*))]γ-hydroxy-α-(1-methylethyl)-δ-[(4-methylpentyl)amino]-N-(1-phenylethyl)cyclohexanehexanamide hydrochloride] | +++ (+++ < = 10)
9 | CC(C)CCCN[C@@H](CC1CCCCC1)[C@@H](O)C[C@H](C(=O)NCCc1ccccc1)C(C)C (relative stereo) [Example 29, [αS-(αR*,γR*,δR*)]γ-hydroxy-α-(1-methylethyl)-δ-[(4-methylpentyl)amino]-N-(2-phenylethyl)cyclohexanehexanamide hydrochloride] | +++ (+++ < = 10)
10 | CC(C)CCCN[C@@H](CC1CCCCC1)[C@@H](O)C[C@H](C(=O)NCC(C)C)C(C)C (relative stereo) [Example 30, [αS-(αR*,γR*,δR*)]γ-hydroxy-α-(1-methylethyl)-δ-[(4-methylpentyl)amino]-N-(2-methylpropyl)cyclohexanehexanamide hydrochloride] | +++ (+++ < = 10)
11 | CC(C)CCCN[C@@H](CC1CCCCC1)[C@@H](O)C[C@H](C(=O)NCC(C)(C)C)C(C)C (relative stereo) [Example 31, [αS-(αR*,γR*,δR*)]N-(2,2-dimethylpropyl)-γ-hydroxy-α-(1-methylethyl)-δ-[(4-methylpentyl)amino]cyclohexanehexanamide hydrochloride] | +++ (+++ < = 10)
